Results on ten compounds are retold here after US4248884A, “2-Pyrrolidine methanol derivatives utilizable as medicaments” (Pharmindustrie, priority 1978, dated 1981).

Read-outs that look alike come from different tables or passages of the source.

For data set [1], the system named is reserpine induced hypothermia (central nervous system). Nature of the data set: Action on the central nervous system: reserpine induced hypothermia in mice. In kind it is in vivo. The note with it: Mus musculus, oral, read-out: DE50 oral (dose exerting an antihypothermic effect equal to 50% of that caused by 15 mg/kg oral imipramine). The method, then:
The activity of the products on the central nervous system has been shown by the test of reserpine induced hypothermia in mice, according to the method of D. M. Asken, Life Sciences, 1963, vol. 2, p. 725, the disclosure of which is incorporated herein by reference,
The results are expressed by a DE50 or dose of product, in mg/kg, capable of exerting an antihypothermic effect equal to 50% of the antihypothermic effect caused by 15 mg/kg (oral) of imipramine.

In another data set the test system is serum triglycerides. Nature of the data set: Hypotriglyceridemiant activity: olive oil induced experimental hypertriglyceridemia in fasting rats. In kind it is in vivo, male rats. The procedure:
Journal of Pharmacology, 1973, 23, 131, the disclosure of which is incorporated herein by reference.
The rats are killed two hours after the administration of the oil by decapitation. The serum is separated by centrifuging and the triglycerides are determined on an amount of 0.2 ml of serum by extraction with a heptane-isopropanol mixture and colorimetry according to the method of Van Handel et al., J. Lab. and Clin. Med., 1957, 50, 152-157, by using an assembly of analytical reagents known commercially as "Triclycerides-kit Bio Merieux".

The nature of data set [2]: Acute toxicity by oral administration. The note with it: in vivo; male mouse CD1, oral, after three days of observation. An excerpt: The acute toxicities of the compounds according to the invention have been determined on the male mouse CD1 (Charles River) by oral administration. The LD50 have been calculated, after three days of observation, by the cumulative method of J. J. Reed et al. (Am. J. Hyg., 1938, 27, 493), the disclosure of which is incorporated herein by reference.

The mark [3] stands for this setting: Rattus norvegicus, po, read-out: % of inhibition (relative reduction of the proportion of serum triglycerides with respect to control animals).
The mark [4] stands for this setting: rat, oral, 100 mg/kg, 2 h before 20 ml/kg olive oil, Student Fischer T test 0.01, read-out: % of inhibition (relative reduction of the proportion of serum triglycerides with respect to control animals).

For orientation: inhibition means how much of the control response was suppressed. For the compound `O[C@H](c1ccccc1)[C@@H]1CCCN1` (relative stereo) [Example 1, α-phenyl-2-pyrrolidine-methanol (erythro isomer)], the ED50 in data set [1] stood at 4.5 mg/kg. Further, the inhibition at 50 mg/kg in the data set with serum triglycerides (setting [3]) worked out at 33%.
In general, LD50 refers to the dose expected to kill half of the subjects tested. A lower LD50 goes with a more toxic substance. In the case of `O[C@H](c1ccccc1)[C@H]1CCCN1` (relative stereo) [Example 2, α-phenyl-2-pyrrolidine methanol (threo isomer)], in data set [1], the ED50 is more than 150 mg/kg. In addition, in the data set with serum triglycerides (setting [3]), the inhibition at 6.25 mg/kg amounted to 41% and the inhibition at 50 mg/kg worked out at 45%. The “hypotriglyceridemiant activity (in words)” value in the data set with serum triglycerides (rat, oral, Example 2 at 6.25 mg/kg) is given as “still very active”. The compound also registered an LD50 at 72 h in data set [2] of 600 mg/kg.
Take `O[C@H](c1ccccc1)[C@H]1CCCN1Cc1ccccc1` (relative stereo) [Example 3, α-phenyl-2-(1-benzyl-pyrrolidine) methanol (threo isomer)]: the LD50 at 72 h in data set [2] was determined as 270 mg/kg.
For the compound `CN1CCC[C@@H]1[C@H](O)c1ccccc1` (relative stereo) [Example 4, α-phenyl-2-(1-methyl-pyrrolidine)methanol (threo isomer)], the 50% lethal dose (LD50) at 72 h in data set [2] came out at 800 mg/kg.
For the compound `OCCN1CCC[C@@H]1[C@H](O)c1ccccc1` (relative stereo) [Example 5, α-phenyl-2-(1-β-hydroxyethyl-pyrrolidine)methanol(threo isomer)], the inhibition at 100 mg/kg with serum triglycerides (setting [4]) amounted to 45%. In data set [2], this compound showed an LD50 at 72 h of 675 mg/kg.
With `O[C@H](c1ccc(Cl)cc1)[C@@H]1CCCN1` (relative stereo) [Example 6, α-(4-chloro-phenyl)-2-pyrrolidine methanol (erythro isomer)], the ED50 in data set [1] came out at 18 mg/kg. This compound also showed an LD50 at 72 h in data set [2] of 675 mg/kg.
As to `O[C@H](c1ccc(Cl)cc1)[C@H]1CCCN1` (relative stereo) [Example 7, α-(4-chloro-phenyl)-2-pyrrolidine methanol (threo isomer)], in data set [1], the ED50 was more than 50 mg/kg. The inhibition at 100 mg/kg in the data set on serum triglycerides (setting [4]) worked out at 41%. The LD50 at 72 h in data set [2] amounted to 400 mg/kg.
For `O[C@H](c1ccc(C2CCCCC2)cc1)[C@@H]1CCCN1` (relative stereo) [Example 8, α-(4-cyclohexyl-phenyl)-2-pyrrolidine methanol (erythro isomer)], the LD50 at 72 h in data set [2] is more than 900 mg/kg.
Same read-out and setting: under `CC(C)(C)c1ccc([C@@H](O)[C@@H]2CCCN2)cc1` (relative stereo) [Example 10, α-(4-tertiobutyl-phenyl)-2-pyrrolidine methanol (erythro isomer)] stands 600 mg/kg.
For `O=C(O)c1cccnc1` [Nictotinic acid, nicotinic acid, reference compound], the inhibition at 100 mg/kg with serum triglycerides (setting [3]) was 50%.
